Assay results as given in patent publication US6358699B1, “Assay for asymmetrical NG, NG dimethyl-l-arginine” (Cooke Pharma, priority 1999, dated 2002).

Biological target: DDAH (Rattus norvegicus, UniProt O08557)
Assay: DDAH activity toward ADMA versus SDMA
Assay type: biochemical
Details: ADMA versus SDMA as substrate
Source text: DDAH, however, has at least 1000-fold higher activity toward ADMA than SDMA, and is therefore uniquely suited for use in an enzymatic assay for unequivocal measurement of ADMA in complex mixtures. Nevertheless an enzymatic ADMA assay using DDAH is problematical because of a number of interfering components in blood. Importantly, citrulline is present in blood, so that it would provide a large background which would substantially diminish the accuracy of an assay where citrulline is the final product which is determined as a measure of the amount of ADMA in the sample. In addition, urea which is also present in blood cross-reacts in the citrulline assay. Finally, porphyrins in blood interfere with the spectrophotometric determination of citrulline. In order to have an enzymatic assay using DDAH, it is essential to prevent these various blood components from interfering with the assay.

DDAH, sequence (O08557 whole entry): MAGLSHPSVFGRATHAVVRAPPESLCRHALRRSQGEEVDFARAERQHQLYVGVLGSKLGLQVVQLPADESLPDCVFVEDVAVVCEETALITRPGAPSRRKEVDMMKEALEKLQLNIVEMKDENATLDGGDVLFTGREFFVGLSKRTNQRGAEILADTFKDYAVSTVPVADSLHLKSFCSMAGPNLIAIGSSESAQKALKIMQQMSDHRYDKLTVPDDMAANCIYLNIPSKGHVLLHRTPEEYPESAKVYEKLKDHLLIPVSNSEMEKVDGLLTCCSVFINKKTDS

DDAH activity toward ADMA relative to SDMA: at least 1000 fold
SMILES: CN(C)C(N)=NCCC[C@H](N)C(=O)O [ADMA, asymmetric dimethylarginine]
